Legend:
[1] = Extrapolation of C. elegans survival data to human life expectancy and lifespan
Text: The extension of life span in the nematode can also be directly measured. The inventor has discovered that feeding GGA to nematodes increased both the mean and maximum lifespan of the nematode by about 50 percent. The increase in lifespan found in the nematode is equivalent to an increase in human life expectancy from 75 years to about 112 years and human lifespan from 120 years to 180 years.

[2] = test system: C. elegans; experiment: Age dependent accumulation of lipofuscin pigment in C. elegans (confocal fluorescence); type: in vivo; conditions: for accumulation of lipofuscin: day 8, control about 65
Protocol: The effect of GGA on the age dependent accumulation of lipofuscin pigment was measured in C. elegans after treatment of worms with various concentrations of the drug. Wild type C. elegans were obtained from the University of Minnesota Caenorhabditis Genetics Center. A 250 mM stock of GGA was dissolved in ethanol and then diluted into 1× M9 OP50 worm food solution. Synchronized eggs were placed on plates containing no drug, 5 μM, 50 μM, or 500 μM GGA and allowed to hatch. On day 8, the worms were washed in 9M buffer and placed on a microscope slide. The amount of lipofuscin pigment was measured using a confocal microscope measuring fluorescence at 488 nm. Fluorescent scans were performed to quantify the amount of lipofuscin pigment. The quantification was normalized to the total area size of the worm in nm^2. The effect of LSG 712 on the age dependent accumulation of lipofuscin pigment was measured in C. elegans after treatment of worms with various concentrations of the drug. Synchronized eggs were placed on plates containing no drug and various concentrations of LSG 712 and allowed to hatch. On day 16, the worms were washed in 9M buffer and placed on a microscope slide. The amount of lipofuscin pigment was measured using a confocal microscope measuring fluorescence at 488 nm.

[3] = test system: C. elegans; experiment: Thermotolerance of C. elegans (35 degrees, SYTOX green fluorescence); type: in vivo
Protocol: The thermotolerance experiments were performed by workers at the Buck Institute on Aging in Novato, California under contract with the applicant. The workers at the Buck Institute performed these experiments under the direction and control of the applicant. The method used is that described in Sampayo et al., Aging Cell, 2: 319-326 (2003). In brief, 50 μl of the test compound dilution was added to a 10 ml week old agar plate spotted with 200 μl of concentrated E. coli OP50. The plates were set aside for 2-5 hours to allow the compounds to disperse. Age synchronous worm cultures of wide type (N2 strain) worms were prepared by hypochroride treatment of fertile adults and grown to three days of age at 20° C. The worms were washed off, resuspended in a small volume of S-basal and approximately 1000 worms were spotted onto each compound plate (˜1000 worms per plate) and the plates were incubated at 20° C. for 24 hours. Thermotolerance was measured using a Fluorskan Ascent fluorometer (Thermo Labsystems, MA). The fluorometer temperature was set to 35 °C and the fluorescence was measured in each well every 30 minutes over a 20-24 hour period, with a 20 millisecond integration time for each well. For SYTOX green fluorescence, the excitation wavelength was set to 485 nm and the emission wavelength at 538 nm. Analysis of individual fluorescence curves to determine the time of death was performed using the Fluoroskan Ascent software. Differences in thermotolerance were assessed using the Mantel-Haenszel Logrank test as implemented in Prism (GraphPad Software Inc.). Kaplan-Meier survival curves were generated using Prism survival analysis. […] C. elegans were maintained and handled as described above. The effect of a GGA analogue promoting thermotolerance was tested. The thermotolerance experiments were performed by workers at the Buck Institute on Aging in Novato, California under contract with the applicant. The workers at the Buck Institute performed these experiments under the direction and control of the applicant. […]

[4] = test system: C. elegans; experiment: Lifespan of C. elegans under agar culture conditions; type: in vivo
Protocol: Additional studies to determine the effect of GGA on lifespan were performed using agar culture conditions. […] 100 μM GGA produces an 11% mean and 13% maximum percent increase in lifespan (Pvalue=0.039). The methods described above for the testing of GGA were employed in the testing of the class IIIa compound, LSG 712. […] 100 μM LSG 712 produces an 12% mean percent extension in lifespan (Pvalue=0.055).

[5] = test system: C. elegans; experiment: Cumulative percent loss of C. elegans cultured on agar plates over time; type: in vivo
Protocol: Another assay that can be used to measure lifespan extension in C. elegans is to measure the cumulative percent loss of C. elegans cultured on agar plates over time in the presence of GGA (LSG 711). C. elegans were maintained as described above. […] Lifespan extension in the presence of the class IIIa compound where R2 is acetone (LSG 712) was also measured in C. elegans using the cumulative percent loss of C. elegans over time as an assay. The methods described above for the testing of GGA were employed in the testing of LSG 712.

[6] = test system: serum thioredoxin; experiment: Serum thioredoxin levels in human volunteers given GGA; type: in vivo; conditions: three 50 mg capsules per day, pre-treatment about 175 ng/ml
Protocol: To test the effect of GGA in providing oxidative stress protection in humans, 2 human volunteers were given three 50 mg capsules of GGA per day. Serum levels of thioredoxin, a protein important in protection from oxidative stress was measured at various time intervals as shown in FIG. 9.

[7] = test system: C. elegans; experiment: Survival (life expectancy and lifespan) of C. elegans in liquid culture; type: in vivo; conditions: for life expectancy / lifespan: liquid culture, 25 degrees Celsius; for life expectancy: control 19 days; for lifespan: control 28 days
Protocol: The effect of geranylacetone (GA) and geranylgeranyl acetone (GGA) on the lengthening of lifespan and life expectancy was studied using the model organism, C. elegans, a system that is commonly used to study aging. GA and GGA were tested at three different concentrations of 5 μM 50 μM and 500 μM. The drugs were dissolved in ethanol, and thus ethanol with no drug present was used as the control in these experiments. 100 worms were used to test each concentration of the drug. GA is assumed to be a pure drug at 4.3 M and was dissolved in 100% ethanol. The drug was then diluted in S basal plus cholesterol plus bacteria OP50 such that the final concentration of ethanol on all plates was 1%. GGA was treated as 10% active with an inert carrier. Thus, all treatments were done with a 10-fold increase over the calculated concentration. GGA was suspended in 100% ethanol at 50 degrees Celsius and mixed for about hour after which the supernatant from this mixture was used. The drug was then diluted in S basal plus cholesterol plus bacteria OP50 such that the final concentration of ethanol on all plates was 1%. Wild type N2 C. elegans were obtained from the University of Minnesota Caenorhabditis Genetics Center. All assays were conducted on OP50 (CGCb) using 1× M9 OP50 worm food solution. Survival experiments were carried out in duplicate culture (2 cohorts, 50 worms each) at 25 degrees Celsius. Worms were exposed to the drugs at day 3 of life when set up in liquid culture with OP50 at 10^9 bacteria/ml. Worms were transferred daily for the first six days to remove progeny and to assess mortality. At day 10 and thereafter transfers were done 3 times per week. At each transfer, fresh drug was added to the desired concentration in a manner to achieve a final ethanol concentration of 1%.

[8] = extrapolated from C. elegans survival at 500 μM (FIG. 3)
[9] = feeding to nematodes, summary statement, concentration not given

| SMILES | mean percent increase in lifespan ([4]; 50 μM) [%] | mean percent increase in lifespan ([4]; 100 μM) [%] | maximum percent increase in protection ([5]; 50 μM) [%] | mean percent increase in protection ([5]; 50 μM) [%] | maximum percent increase in protection ([5]; 100 μM) [%] | mean percent increase in protection ([5]; 100 μM) [%] | life expectancy ([7]; 5 μM) [days] | lifespan ([7]; 5 μM) [days] | life expectancy ([7]; 50 μM) [days] | lifespan ([7]; 50 μM) [days] | also measured |
| --- | --- | --- | --- | --- | --- | --- | --- | --- | --- | --- | --- |
| CC(=O)CC/C=C(\C)CC/C=C(\C)CC/C=C(\C)CCC=C(C)C [GGA, Geranylgeranyl acetone] | 11 | 11 | −7 | −4 | 12 | 7 | 21 | 33 | 23 | 35 | equivalent human life expectancy ([1]; equivalent of nematode lifespan increase, from 75 years): about 112 years; equivalent human lifespan ([1]; equivalent of nematode lifespan increase, from 120 years): 180 years; predicted human life expectancy [1, 8]: 85-100 years; predicted human life span [1, 8]: 120-159 years; accumulation of lipofuscin ([2]; 5 μM): about 15 autofluorescent intensity/area units; accumulation of lipofuscin ([2]; 50 μM): under 5 autofluorescent intensity/area units; accumulation of lipofuscin ([2]; 500 μM): under 10 autofluorescent intensity/area units; lipofuscin accumulation by confocal fluorescence microscopy (FIG. 5) ([2]; qualitative): reduction of lipofuscin accumulation; maximum increase in lifespan extension (thermotolerance) ([3]; 500 μM): 27%; mean increase in lifespan extension (thermotolerance) ([3]; 500 μM): 29%; maximum percent increase in lifespan ([4]; 50 μM): 8%; maximum percent increase in lifespan ([4]; 100 μM): 13%; serum thioredoxin ([6]; one volunteer, after approximately 32 days): about 275 ng/ml; serum thioredoxin ([6]; second volunteer): about 425 ng/ml; life expectancy ([7]; 500 μM): 23 days; lifespan ([7]; 500 μM): 37 days; increase of maximum lifespan of the nematode [7, 9]: about 50%; increase of mean lifespan of the nematode [7, 9]: about 50% |
| CC(=O)/C=C/C=C(\C)CC/C=C(\C)CC/C=C(\C)CCC=C(C)C [LSG 712] | 12 | 12 | 25 | 21 | 20 | 12 | – | – | – | – | reduction in the amount of lipofuscin pigment ([2]; day 16, compared with non-treated control worms, concentration not given): 50%; mean increase in lifespan extension (thermotolerance) ([3]; 100 μM): 19% |
| CC(=O)CC/C=C(\C)CCC=C(C)C [GA, geranylacetone] | – | – | – | – | – | – | 21 | 32 | 21 | 30 | – |

Reference: patent publication US20060135623A1, “Decrease in oxidative stress status through the administration of natural products and pharmaceutical drugs” (priority 2004, published 2006)
